Columns and labels:
STEME = test: Herbicidal pre-emergence action (Table A6); assay type: in vivo, Stellaria media; details: visual grading after ca. 3 weeks
Text: (§1) Seeds of mono- and dicotyledonous weed plants were sown in plastic pots (double sowings with one species of mono- and one species of dicotyledonous weed plants per pot), in sandy loam, and covered with soil.

SETVI [1] = test: Herbicidal pre-emergence action (Table A5); assay type: in vivo, Setaria viridis; details: visual grading after ca. 3 weeks
Text: as §1

ECHCG [2] = test: Herbicidal pre-emergence action (Table A2); assay type: in vivo, Echinochloa crus-galli; details: visual grading after ca. 3 weeks
Text: as §1

DIGSA = test: Herbicidal pre-emergence action (Table A12); assay type: in vivo, Digitaria sanguinalis; details: visual grading after ca. 3 weeks
Text: as §1

LOLRI = test: Herbicidal pre-emergence action (Table A3); assay type: in vivo, Lolium rigidum; details: visual grading after ca. 3 weeks; for pest or weed control at 1280 g/ha: Lolium rigidum, pre-emergence, 504 h, read-out: pre-emergence activity against LOLRI
Text: as §1

VERPE [3] = test: Herbicidal post-emergence action (Table B10); assay type: in vivo, Veronica persica
Method: (§2) Seeds of mono- and dicotyledonous weed plants were placed in plastic pots in sandy loam soil (doubly sown with in each case one species of mono- or dicotyledonous weed plants per pot), covered with soil and cultivated in a greenhouse under controlled growth conditions. 2 to 3 weeks after sowing, the test plants were treated at the one-leaf stage. […] After the test plants had been kept in the greenhouse under optimum growth conditions for about 3 weeks, the activity of the preparations was rated visually in comparison to untreated controls. For example, 100% activity = the plants have died, 0% activity = like control plants.

POAAN [4] = test: Herbicidal pre-emergence action (Table A7); assay type: in vivo, Poa annua; details: visual grading after ca. 3 weeks; for pest or weed control at 320 g/ha: Poa annua, pre-emergence, 504 h, read-out: pre-emergence activity against POAAN
Text: as §1

POAAN [5] = test: Herbicidal post-emergence action (Table B7); assay type: in vivo, Poa annua; details: application rate 1280 g/ha
Method: as §2

MATIN = test: Herbicidal pre-emergence action (Table A4); assay type: in vivo, Matricaria inodora; details: visual grading after ca. 3 weeks
Text: as §1

KCHSC = test: Herbicidal pre-emergence action (Table A10); assay type: in vivo, Kochia scoparia; details: application rate 1280 g/ha; visual grading after ca. 3 weeks
Text: as §1

ALOMY = test: Herbicidal pre-emergence action (Table A9); assay type: in vivo, Alopecurus myosuroides; details: application rate 1280 g/ha; visual grading after ca. 3 weeks
Text: as §1

SETVI [6] = test: Herbicidal post-emergence action (Table B8); assay type: in vivo, Setaria viridis
Method: as §2

ECHCG [7] = test: Herbicidal post-emergence action (Table B3); assay type: in vivo, Echinochloa crus-galli; details: application rate 1280 g/ha, rated visually after about 3 weeks
Method: as §2

ECHCG [8] = test: Herbicidal pre-emergence action, section C (Table C6); assay type: in vivo, Echinochloa crus-galli; details: application rate 320 g/ha; visual grading after ca. 3 weeks
VIOTR = test: Herbicidal pre-emergence action, section C (Table C12); assay type: in vivo, Viola tricolor; details: application rate 320 g/ha; visual grading after ca. 3 weeks
VERPE [9] = test: Herbicidal pre-emergence action (Table A11); assay type: in vivo, Veronica persica; details: application rate 1280 g/ha; visual grading after ca. 3 weeks
Text: as §1

Structure (SMILES): O=C1N(Cc2ccccc2F)CCCC12CCCN(Cc1ccccc1F)C2=O (single isomer, unassigned) [I-056]
- pre-emergence activity against STEME (STEME; application rate 1280 g/ha): 90%
- pre-emergence activity against SETVI (SETVI [1]; application rate 1280 g/ha): 100%
- pre-emergence activity against ECHCG (ECHCG [2]; application rate 1280 g/ha): 100%
- pre-emergence activity against DIGSA (DIGSA; application rate 1280 g/ha): 100%
- pre-emergence activity against LOLRI (LOLRI; application rate 1280 g/ha): 100%
- post-emergence activity against VERPE (VERPE [3]; application rate 1280 g/ha): 90%
- pre-emergence activity against POAAN (POAAN [4]; application rate 320 g/ha): 100%

Structure (SMILES): O=C1N(Cc2ccccc2F)CCC12CCCN(Cc1cccc(F)c1F)C2=O (racemic) [I-085]
- post-emergence activity against POAAN (POAAN [5]): 90%
- pre-emergence activity against STEME (STEME; application rate 320 g/ha): 90%
- pre-emergence activity against SETVI (SETVI [1]; application rate 1280 g/ha): 100%
- pre-emergence activity against ECHCG (ECHCG [2]; application rate 1280 g/ha): 100%
- pre-emergence activity against MATIN (MATIN; application rate 320 g/ha): 90%
- pre-emergence activity against DIGSA (DIGSA; application rate 320 g/ha): 90%
- pre-emergence activity against KCHSC (KCHSC): 90%
- pre-emergence activity against LOLRI (LOLRI; application rate 320 g/ha): 100%
- pre-emergence activity against ALOMY (ALOMY): 90%
- pre-emergence activity against POAAN (POAAN [4]; application rate 320 g/ha): 100%
- post-emergence activity against SETVI (SETVI [6]; application rate 1280 g/ha): 90%

Structure (SMILES): O=C1N(Cc2ccccc2F)CCCC12CCCN(Cc1ccccc1Cl)C2=O (racemic) [I-036]
- post-emergence activity against POAAN (POAAN [5]): 90%
- pre-emergence activity against SETVI (SETVI [1]; application rate 320 g/ha): 100%
- pre-emergence activity against ECHCG (ECHCG [2]; application rate 320 g/ha): 100%
- pre-emergence activity against MATIN (MATIN; application rate 320 g/ha): 90%
- pre-emergence activity against LOLRI (LOLRI; application rate 320 g/ha): 100%
- pre-emergence activity against ALOMY (ALOMY): 90%
- pre-emergence activity against POAAN (POAAN [4]; application rate 320 g/ha): 90%
- post-emergence activity against ECHCG (ECHCG [7]): 90%
- post-emergence activity against SETVI (SETVI [6]; application rate 1280 g/ha): 90%

Structure (SMILES): O=C1N(Cc2cccs2)CCCC12CCCN(Cc1ccccc1Cl)C2=O (stereo not shown) [I-062]
- post-emergence activity against POAAN (POAAN [5]): 90%
- pre-emergence activity against STEME (STEME; application rate 320 g/ha): 90%
- pre-emergence activity against SETVI (SETVI [1]; application rate 320 g/ha): 100%
- pre-emergence activity against ECHCG (ECHCG [2]; application rate 1280 g/ha): 100%
- pre-emergence activity against LOLRI (LOLRI; application rate 320 g/ha): 100%
- post-emergence activity against VERPE (VERPE [3]; application rate 1280 g/ha): 90%
- pre-emergence activity against POAAN (POAAN [4]; application rate 320 g/ha): 100%

Structure (SMILES): O=C1N(Cc2cc(F)c(F)cc2F)CCCC12CCCN(Cc1cc(F)c(F)cc1F)C2=O (single isomer, unassigned; (-)) [I-214, (-)-2,8-bis(2,4,5-trifluorophenylmethyl)-2,8-diazaspiro[5.5]undecane-1,7-dione]
- pre-emergence activity against ECHCG (ECHCG [8]): 100%
- pre-emergence activity against VIOTR (VIOTR): 80%

Structure (SMILES): O=C1N(Cc2ccccc2Cl)CCCC12CCCN(Cc1ccccc1Cl)C2=O (racemic) [I-054]
- pre-emergence activity against SETVI (SETVI [1]; application rate 320 g/ha): 100%
- pre-emergence activity against ECHCG (ECHCG [2]; application rate 320 g/ha): 100%
- pre-emergence activity against VERPE (VERPE [9]): 90%
- post-emergence activity against VERPE (VERPE [3]; application rate 1280 g/ha): 90%
- pre-emergence activity against POAAN (POAAN [4]; application rate 320 g/ha): 100%

Structure (SMILES): Cc1nc(Cl)sc1CN1CCCC2(CCCN(Cc3sc(Cl)nc3C)C2=O)C1=O (racemic) [I-201, 2,8-bis[(2-chloro-4-methyl-1,3-thiazol-5-yl)methyl]-2,8-diazaspiro[5.5]undecane-1,7-dione]
- post-emergence activity against POAAN (POAAN [5]): 90%
- pre-emergence activity against DIGSA (DIGSA; application rate 1280 g/ha): 90%
- pest or weed control at 1280 g/ha (LOLRI; application rate 1280 g/ha): 100%
- pre-emergence activity against ALOMY (ALOMY): 100%
- pest or weed control at 320 g/ha (POAAN [4]; application rate 320 g/ha): 100%
- post-emergence activity against SETVI (SETVI [6]; application rate 1280 g/ha): 90%

Structure (SMILES): COc1cccc(F)c1CN1CCCC2(CCCN(Cc3c(F)cccc3OC)C2=O)C1=O (racemic) [I-033]
- pre-emergence activity against STEME (STEME; application rate 1280 g/ha): 100%
- pre-emergence activity against VERPE (VERPE [9]): 90%
- pre-emergence activity against DIGSA (DIGSA; application rate 1280 g/ha): 100%
- pre-emergence activity against ALOMY (ALOMY): 90%
- pre-emergence activity against POAAN (POAAN [4]; application rate 320 g/ha): 100%

Structure (SMILES): O=C1N(Cc2ccsc2)CCCC12CCCN(Cc1c(F)cccc1F)C2=O (racemic) [I-075]
- post-emergence activity against POAAN (POAAN [5]): 90%
- pre-emergence activity against STEME (STEME; application rate 1280 g/ha): 100%
- pre-emergence activity against SETVI (SETVI [1]; application rate 320 g/ha): 90%
- pre-emergence activity against ECHCG (ECHCG [2]; application rate 320 g/ha): 100%
- pre-emergence activity against MATIN (MATIN; application rate 1280 g/ha): 90%
- pre-emergence activity against LOLRI (LOLRI; application rate 320 g/ha): 100%
- pre-emergence activity against ALOMY (ALOMY): 90%
- pre-emergence activity against POAAN (POAAN [4]; application rate 1280 g/ha): 100%
- post-emergence activity against ECHCG (ECHCG [7]): 90%

Structure (SMILES): O=C1N(Cc2ccccc2C(F)(F)F)CCCC12CCCN(Cc1ccccc1C(F)(F)F)C2=O (racemic) [I-091]
- pre-emergence activity against ECHCG (ECHCG [2]; application rate 1280 g/ha): 100%
- pre-emergence activity against DIGSA (DIGSA; application rate 1280 g/ha): 100%
- post-emergence activity against VERPE (VERPE [3]; application rate 320 g/ha): 90%
- pre-emergence activity against POAAN (POAAN [4]; application rate 1280 g/ha): 100%

Structure (SMILES): O=C1N(Cc2ccc(F)c(F)c2F)CCCC12CCCN(Cc1ccc(F)c(F)c1F)C2=O (racemic) [I-189, 2,8-bis(2,3,4-trifluorophenylmethyl)-2,8-diazaspiro[5.5]undecane-1,7-dione]
- pre-emergence activity against STEME (STEME; application rate 1280 g/ha): 90%
- pre-emergence activity against SETVI (SETVI [1]; application rate 320 g/ha): 100%
- pre-emergence activity against ECHCG (ECHCG [2]; application rate 320 g/ha): 100%
- pre-emergence activity against MATIN (MATIN; application rate 1280 g/ha): 90%
- pre-emergence activity against DIGSA (DIGSA; application rate 320 g/ha): 90%
- pre-emergence activity against KCHSC (KCHSC): 100%
- pest or weed control at 1280 g/ha (LOLRI; application rate 1280 g/ha): 100%
- pre-emergence activity against ALOMY (ALOMY): 100%
- pest or weed control at 320 g/ha (POAAN [4]; application rate 320 g/ha): 100%
- pest or weed control at 1280 g/ha (ECHCG [7]; Echinochloa crus-galli, post-emergence, 504 h, read-out: post-emergence activity against ECHCG): 90%
- post-emergence activity against SETVI (SETVI [6]; application rate 320 g/ha): 90%

Structure (SMILES): Cc1ccccc1CN1CCCC2(CCCN(Cc3ccccc3)C2=O)C1=O (racemic) [I-092]
- post-emergence activity against POAAN (POAAN [5]): 90%
- pre-emergence activity against SETVI (SETVI [1]; application rate 320 g/ha): 90%
- pre-emergence activity against ECHCG (ECHCG [2]; application rate 320 g/ha): 100%
- pre-emergence activity against LOLRI (LOLRI; application rate 1280 g/ha): 100%
- post-emergence activity against VERPE (VERPE [3]; application rate 320 g/ha): 90%

Structure (SMILES): Cc1ccccc1CN1CCCC2(CCCN(Cc3c(F)cccc3F)C2=O)C1=O (racemic) [I-051]
- post-emergence activity against POAAN (POAAN [5]): 90%
- pre-emergence activity against SETVI (SETVI [1]; application rate 320 g/ha): 100%
- pre-emergence activity against ECHCG (ECHCG [2]; application rate 320 g/ha): 100%
- pre-emergence activity against VERPE (VERPE [9]): 90%
- pre-emergence activity against LOLRI (LOLRI; application rate 320 g/ha): 100%
- pre-emergence activity against ALOMY (ALOMY): 90%
- pre-emergence activity against POAAN (POAAN [4]; application rate 1280 g/ha): 90%
- post-emergence activity against ECHCG (ECHCG [7]): 90%
- post-emergence activity against SETVI (SETVI [6]; application rate 1280 g/ha): 90%

Structure (SMILES): CC(c1ccccc1F)N1CCCC2(CCCN(C(C)c3ccccc3F)C2=O)C1=O (stereo not shown) [I-115]
- pre-emergence activity against STEME (STEME; application rate 1280 g/ha): 100%
- pre-emergence activity against SETVI (SETVI [1]; application rate 1280 g/ha): 100%
- post-emergence activity against VERPE (VERPE [3]; application rate 1280 g/ha): 90%
- pre-emergence activity against POAAN (POAAN [4]; application rate 1280 g/ha): 90%
